Literature values as cited in US11040008B2, “Pharmaceutical compositions of meloxicam” (Slayback Pharma LLC, priority 2018, dated 2021).

Key:
[1] = oral, fasted steady state conditions

Cc1cnc(NC(=O)C2=C(O)c3ccccc3S(=O)(=O)N2C)s1 [meloxicam, 4-hydroxy-2-methyl-N-(5-methyl-2-thiazolyl)-2H-1,2-benzothiazine-3-carboxamide-1,1-dioxide]
Time of second meloxicam concentration peak post-dose [1]: twelve to fourteen | Solubility in water: practically insoluble in water
